{"source": "ChEMBL document CHEMBL5038615", "about": "“Discovery of a cinnamyl piperidine derivative as new neddylation inhibitor for gastric cancer treatment” (Eur J Med Chem, 2021)", "key": {"MGC-803 [1]": {"test_system": "MGC-803", "assay": "Induction of apoptosis in human MGC-803 cells assessed as viable cells at 7.5 uM measured after 48 hrs by AnnexinV/FITC staining based flow cytometry method (reference value: 97.4%)", "type": "functional", "details": "read-out: Activity"}, "HGC-27 [2]": {"test_system": "HGC-27", "assay": "Induction of apoptosis in human HGC-27 cells assessed as late apoptotic cells at 3 uM measured after 24 hrs by AnnexinV/FITC staining based flow cytometry method (reference value: 2.4%)", "type": "functional"}, "HGC-27 [3]": {"test_system": "HGC-27", "assay": "Induction of apoptosis in human HGC-27cells assessed as reduction of mitochondrial membrane potential at 6 uM measured after 24 hrs by JC-1 staining based Flowcytometry assay (reference value: 2.4%)", "type": "functional", "parameters": "scale not given: the % may be the effect or the level left"}, "MGC-803 [4]": {"test_system": "MGC-803", "assay": "Induction of apoptosis in human MGC-803 cells assessed as viable cells at 5 uM measured after 24 hrs by AnnexinV/FITC staining based flow cytometry method (reference value: 94.8%)", "type": "functional", "details": "read-out: Activity"}, "HGC-27 [5]": {"test_system": "HGC-27", "assay": "Induction of apoptosis in human HGC-27 cells assessed as early apoptotic cells at 3 uM measured after 48 hrs by AnnexinV/FITC staining based flow cytometry method (reference value: 5.8%)", "type": "functional"}, "MGC-803 [6]": {"test_system": "MGC-803", "assay": "Induction of apoptosis in human MGC-803 cells assessed as necrotic cells at 5 uM measured after 48 hrs by AnnexinV/FITC staining based flow cytometry method (reference value: 0.2%)", "type": "functional"}, "MGC-803 [7]": {"test_system": "MGC-803", "assay": "Induction of apoptosis in human MGC-803 cells assessed as early apoptotic cells at 5 uM measured after 48 hrs by AnnexinV/FITC staining based flow cytometry method (reference value: 1.5%)", "type": "functional"}, "HGC-27 [8]": {"test_system": "HGC-27", "assay": "Antiproliferative activity against human HGC-27 cells assessed as cell survival at 7.5 uM preincubated with Z-VAD-FMK followed by compound addition and measured after 24 hrs by MTT assay", "type": "functional, cell-based"}, "MGC-803 [9]": {"test_system": "MGC-803", "assay": "Cell cycle arrest in human MGC-803 cells assessed as accumulation of cells at S phase at 2.5 uM measured after 24 hrs by Flowcytometry assay (reference value: 36.51%)", "type": "functional"}, "HGC-27 [10]": {"test_system": "HGC-27", "assay": "Induction of apoptosis in human HGC-27 cells assessed as ROS levels at 6 uM measured after 24 hrs by DCFH-DA staining based flow cytometry assay (reference value: 6.8%)", "type": "functional"}, "MGC-803 [11]": {"test_system": "MGC-803", "assay": "Induction of apoptosis in human MGC-803 cells assessed as necrotic cells at 2.5 uM measured after 24 hrs by AnnexinV/FITC staining based flow cytometry method (reference value: 1.9%)", "type": "functional"}, "MGC-803 [12]": {"test_system": "MGC-803", "assay": "Induction of apoptosis in human MGC-803 cells assessed as reduction of mitochondrial membrane potential at 2.5 uM measured after 24 hrs by JC-1 staining based Flowcytometry assay (reference value: 3.8%)", "type": "functional", "parameters": "scale not given: the % may be the effect or the level left"}, "MGC-803 [13]": {"test_system": "MGC-803", "assay": "Induction of apoptosis in human MGC-803 cells assessed as late apoptotic cells at 2.5 uM measured after 24 hrs by AnnexinV/FITC staining based flow cytometry method (reference value: 2%)", "type": "functional"}, "HepG2": {"test_system": "HepG2", "assay": "Antiproliferative activity against human HepG2 cells assessed as inhibition of cell proliferation measured after 72 hrs by MTT assay", "type": "functional, cell-based", "details": "HepG2, 72 h"}, "HGC-27 [14]": {"test_system": "HGC-27", "assay": "Induction of apoptosis in human HGC-27 cells assessed as reduction of mitochondrial membrane potential at 3 uM measured after 24 hrs by JC-1 staining based Flowcytometry assay (reference value: 2.4%)", "type": "functional", "parameters": "scale not given: the % may be the effect or the level left"}, "HGC-27 [15]": {"test_system": "HGC-27", "assay": "Induction of apoptosis in human HGC-27 cells assessed as late apoptotic cells at 9 uM measured after 48 hrs by AnnexinV/FITC staining based flow cytometry method (reference value: 1%)", "type": "functional"}, "MGC-803 [16]": {"test_system": "MGC-803", "assay": "Induction of apoptosis in human MGC-803 cells assessed as viable cells at 2.5 uM measured after 24 hrs by AnnexinV/FITC staining based flow cytometry method (reference value: 94.8%)", "type": "functional", "details": "read-out: Activity"}, "MGC-803 [17]": {"test_system": "MGC-803", "assay": "Induction of apoptosis in human MGC-803 cells assessed as ROS levels at 2.5 uM measured after 24 hrs by DCFH-DA staining based flow cytometry assay (reference value: 3.3%)", "type": "functional"}, "MGC-803 [18]": {"test_system": "MGC-803", "assay": "Induction of apoptosis in human MGC-803 cells assessed as viable cells at 5 uM measured after 48 hrs by AnnexinV/FITC staining based flow cytometry method (reference value: 97.4%)", "type": "functional", "details": "read-out: Activity"}, "MGC-803 [19]": {"test_system": "MGC-803", "assay": "Induction of apoptosis in human MGC-803 cells assessed as late apoptotic cells at 7.5 uM measured after 24 hrs by AnnexinV/FITC staining based flow cytometry method (reference value: 2%)", "type": "functional"}, "MGC-803 [20]": {"test_system": "MGC-803", "assay": "Induction of apoptosis in human MGC-803 cells assessed as early apoptotic cells at 2.5 uM measured after 24 hrs by AnnexinV/FITC staining based flow cytometry method (reference value: 1.3%)", "type": "functional"}, "HGC-27 [21]": {"test_system": "HGC-27", "assay": "Induction of apoptosis in human HGC-27 cells assessed as necrotic cells at 9 uM measured after 48 hrs by AnnexinV/FITC staining based flow cytometry method (reference value: 0.1%)", "type": "functional"}, "MGC-803 [22]": {"test_system": "MGC-803", "assay": "Induction of apoptosis in human MGC-803 cells assessed as viable cells at 2.5 uM measured after 48 hrs by AnnexinV/FITC staining based flow cytometry method (reference value: 97.4%)", "type": "functional", "details": "read-out: Activity"}, "MGC-803 [23]": {"test_system": "MGC-803", "assay": "Antitumour activity against human MGC-803 cells xenografted in NOD-SCID mouse assessed as reduction on tumour growth at 50 mg/kg/day, IG measured after 21 days relative to control", "type": "functional", "details": "MGC-803, po, 504 h, time 21 day, read-out: TGI"}, "MGC-803 [24]": {"test_system": "MGC-803", "assay": "Induction of apoptosis in human MGC-803 cells assessed as early apoptotic cells at 7.5 uM measured after 48 hrs by AnnexinV/FITC staining based flow cytometry method (reference value: 1.5%)", "type": "functional"}, "MGC-803 [25]": {"test_system": "MGC-803", "assay": "Induction of apoptosis in human MGC-803 cells assessed as reduction of mitochondrial membrane potential at 5 uM measured after 24 hrs by JC-1 staining based Flowcytometry assay (reference value: 3.8%)", "type": "functional", "parameters": "scale not given: the % may be the effect or the level left"}, "MGC-803 [26]": {"test_system": "MGC-803", "assay": "Induction of apoptosis in human MGC-803 cells assessed as necrotic cells at 5 uM measured after 24 hrs by AnnexinV/FITC staining based flow cytometry method (reference value: 1.9%)", "type": "functional"}, "MGC-803 [27]": {"test_system": "MGC-803", "assay": "Antiproliferative activity against human MGC-803 cells assessed as inhibition of cell proliferation measured after 72 hrs by MTT assay", "type": "functional, cell-based", "details": "MGC-803, 72 h"}, "MGC-803 [28]": {"test_system": "MGC-803", "assay": "Induction of apoptosis in human MGC-803 cells assessed as necrotic cells at 2.5 uM measured after 48 hrs by AnnexinV/FITC staining based flow cytometry method (reference value: 0.2%)", "type": "functional"}, "[29]": {"assay": "Cytotoxicity against human GES1 cells assessed as inhibition of cell proliferation measured after 72 hrs by MTT assay", "type": "toxicity, cell-based"}, "HGC-27 [30]": {"test_system": "HGC-27", "assay": "Induction of apoptosis in human HGC-27 cells assessed as early apoptotic cells at 9 uM measured after 48 hrs by AnnexinV/FITC staining based flow cytometry method (reference value: 5.8%)", "type": "functional"}, "HGC-27 [31]": {"test_system": "HGC-27", "assay": "Induction of apoptosis in human HGC-27 cells assessed as necrotic cells at 9 uM measured after 24 hrs by AnnexinV/FITC staining based flow cytometry method (reference value: 1.2%)", "type": "functional"}, "MGC-803 [32]": {"test_system": "MGC-803", "assay": "Induction of apoptosis in human MGC-803 cells assessed as viable cells at 7.5 uM measured after 24 hrs by AnnexinV/FITC staining based flow cytometry method (reference value: 94.8%)", "type": "functional", "details": "read-out: Activity"}, "HGC-27 [33]": {"test_system": "HGC-27", "assay": "Induction of apoptosis in human HGC-27 cells assessed as late apoptotic cells at 6 uM measured after 24 hrs by AnnexinV/FITC staining based flow cytometry method (reference value: 2.4%)", "type": "functional"}}, "note": "Active and inactive are the calls of the source. The calls are words filed in the database; no cut-off is given here."}
{"smiles": "CCCCCc1ccc(NC(=O)C2CCN(C/C=C/c3ccccc3)CC2)cc1", "values": [{"measurement": "viability at 7.5 µM", "setting": "MGC-803 [1]", "value": 0.4, "unit": "%"}, {"measurement": "Activity", "setting": "HGC-27 [2]", "value": 4.6, "unit": "%"}, {"measurement": "Activity", "setting": "HGC-27 [3]", "value": 45.3, "unit": "%"}, {"measurement": "viability at 5 µM", "setting": "MGC-803 [4]", "value": 80.1, "unit": "%"}, {"measurement": "Activity", "setting": "HGC-27 [5]", "value": 6.2, "unit": "%"}, {"measurement": "Activity", "setting": "MGC-803 [6]", "value": 0.8, "unit": "%"}, {"measurement": "Activity", "setting": "MGC-803 [7]", "value": 9.8, "unit": "%"}, {"measurement": "Activity", "setting": "HGC-27 [8]", "value": "Active"}, {"measurement": "Activity", "setting": "MGC-803 [9]", "value": 33.01, "unit": "%"}, {"measurement": "Activity", "setting": "HGC-27 [10]", "value": 14.5, "unit": "%"}, {"measurement": "Activity", "setting": "MGC-803 [11]", "value": 0.8, "unit": "%"}, {"measurement": "Activity", "setting": "MGC-803 [12]", "value": 4, "unit": "%"}, {"measurement": "Activity", "setting": "MGC-803 [13]", "value": 3.6, "unit": "%"}, {"measurement": "IC50", "setting": "HepG2", "value": 2890, "unit": "nM"}, {"measurement": "Activity", "setting": "HGC-27 [14]", "value": 4.4, "unit": "%"}, {"measurement": "Activity", "setting": "HGC-27 [15]", "value": 99.5, "unit": "%"}, {"measurement": "viability at 2.5 µM", "setting": "MGC-803 [16]", "value": 93.5, "unit": "%"}, {"measurement": "Activity", "setting": "MGC-803 [17]", "value": 4, "unit": "%"}, {"measurement": "viability at 5 µM", "setting": "MGC-803 [18]", "value": 38.4, "unit": "%"}, {"measurement": "Activity", "setting": "MGC-803 [19]", "value": 82.4, "unit": "%"}, {"measurement": "Activity", "setting": "MGC-803 [20]", "value": 2.1, "unit": "%"}, {"measurement": "Activity", "setting": "HGC-27 [21]", "value": 0, "unit": "%"}, {"measurement": "viability at 2.5 µM", "setting": "MGC-803 [22]", "value": 50.6, "unit": "%"}, {"measurement": "inhibition in vivo at 50 mg/kg/day", "setting": "MGC-803 [23]", "value": 32.3, "unit": "%"}, {"measurement": "Activity", "setting": "MGC-803 [24]", "value": 4, "unit": "%"}, {"measurement": "Activity", "setting": "MGC-803 [25]", "value": 17.4, "unit": "%"}, {"measurement": "Activity", "setting": "MGC-803 [26]", "value": 8.2, "unit": "%"}, {"measurement": "IC50", "setting": "MGC-803 [27]", "value": 2550, "unit": "nM"}, {"measurement": "Activity", "setting": "MGC-803 [28]", "value": 2.9, "unit": "%"}, {"measurement": "IC50 at 72 h", "setting": "[29]", "value": 8.7, "unit": "µM"}, {"measurement": "Activity", "setting": "HGC-27 [30]", "value": 0.2, "unit": "%"}, {"measurement": "Activity", "setting": "HGC-27 [31]", "value": 2.7, "unit": "%"}, {"measurement": "viability at 7.5 µM", "setting": "MGC-803 [32]", "value": 9.1, "unit": "%"}, {"measurement": "Activity", "setting": "HGC-27 [33]", "value": 51.3, "unit": "%"}]}
